Reference: patent publication US12157730B2, “Heteroaryl derivative, method for producing same, and pharmaceutical composition comprising same as effective component” (VORONOI INC., priority 2019, dated 2024)

target: T1, Ba/F3 cell EGFR Exon20 ins NPH (Homo sapiens, UniProt P00533, INS773NPH); test: Ba/F3 cell proliferation suppression, EGFR Exon20 ins NPH; assay type: cell-based; details: GI50 class; Ba/F3 cell line with NPH inserted at Exon20 of EGFR; 72 hours
T1 construct: expressed in transfected cells; host or cells: Ba/F3
Procedure, shortened: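 Cells (3000–5000/well) plated 24 h before compound, 12-point 3-fold dilutions at 0.3 nM to 50 um final; Ba/F3 lines grown with 5 ng/ml IL-3. Viability by CellTiter-Glo luminescence after 72 h, growth ratio vs control, GI50 from curves; triplicate.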

Row | Compound | Ba/F3 (NPH) Activity
1 | C=CC(=O)Nc1cc(Nc2cc(N3OCC[C@@H]3c3cccc(OC)c3)ncn2)c(OC)cc1N1CCC(N2CCN(C3COC3)CC2)CC1 [Example 81, N-(4-methoxy-5-((6-((R)-3-(3-methoxyphenyl)isoxazolidine-2-yl)pyrimidine-4-yl)amino)-2-(4-(4-(oxetane-3-yl)piperazine-1-yl)piperidine-yl)phenyl) acrylamide] | B (50 nM ≤ GI50 < 500 nM)
2 | C=CC(=O)Nc1cc(Nc2cc(N3OCC[C@@H]3c3cccc4ccccc34)ncn2)c(OC)cc1N1CCC(N2C[C@@H](C)O[C@@H](C)C2)CC1 [compound 491, N-(2-(4-((2S,6R)-2,6-dimethylmorpholino)piperidine-1-yl)-4-methoxy-5-((6-((R)-3-(naphthalene-1-yl)isoxazolidine-2-yl)pyrimidine-4-yl)amino)phenyl)acrylamide] | B (50 nM ≤ GI50 < 500 nM)
3 | C=CC(=O)Nc1cc(Nc2cc(N3OCC[C@@H]3c3ccc(Cl)c(Cl)c3)ncn2)c(OC)cc1N1CCC(N2CCN(C3COC3)CC2)CC1 [compound 931, N-(5-((6-((R)-3-(3,4-dichlorophenyl)isoxazolidine-2-yl)pyrimidine-4-yl)amino)-4-methoxy-2-(4-(4-(oxetane-3-yl)piperazine-1-yl)piperidine-1-yl)phenyl) acrylamide] | A (GI50 < 50 nM)
4 | C=CC(=O)Nc1cc(Nc2cc(N3OCC[C@@H]3c3cc(F)cc(Cl)c3)ncn2)c(OC)cc1N1CCC(N2C[C@@H]3CCN(C)[C@@H]3C2)CC1 [compound 540, N-(5-((6-((R)-3-(3-chloro-5-fluorophenyl)isoxazolidine-2-yl)pyrimidine-4-yl)amino)-4-methoxy-2-(4-((3aS,6aS)-1-methylhexahydropyrrolo [3,4-b]pyrrole-5(1H)-yl)piperidine-1-yl)phenyl)acrylamide] | A (GI50 < 50 nM)
5 | C=CC(=O)Nc1cc(Nc2cc(N3OCC[C@@H]3Cc3cccc(Cl)c3Cl)ncn2)c(OC)cc1N1CC[C@@H](N(C)C)C1 [compound 984, N-(5-((6-((S)-3-(2,3-dichlorobenzyl)isoxazolidine-2-yl)pyrimidine-4-yl)amino)-2-((R)-3-(dimethylamino)pyrolidine-1-yl)-4-methoxyphenyl) acrylamide] | A (GI50 < 50 nM)
6 | C=CC(=O)Nc1cc(Nc2cc(N3OCC[C@H]3Cc3cccnc3)ncn2)c(OC)cc1N1CCC(N2C[C@H]3C[C@@H]2CO3)CC1 [compound 990, N-(2-(4-((1R,4R)-2-oxa-5-azabicyclo [2.2.1]heptane-5-yl)piperidine-1-yl)-4-methoxy-5-((6-((R)-3-(pyridine-3-ylmethyl)isoxazolidine-2-yl)pyrimidine-4-yl)amino)phenyl)acrylamide] | B (50 nM ≤ GI50 < 500 nM)
7 | C=C(F)C(=O)Nc1cc(Nc2cc(N3OCC[C@@H]3c3cc(F)cc(F)c3)ncn2)c(OC)cc1N1CCC(N2CCN(C3CC3)CC2)CC1 [Example 120, N-(2-(4-(4-cyclopropylpiperazine-1-yl)piperidine-1-yl)-5-((6-((R)-3-(3,5-difluorophenyl)isoxazolidine-2-yl)pyrimidine-4-yl)amino)-4-methoxyphenyl)-2-fluoroacrylamide] | C (500 nM ≤ GI50 < 5000 nM)
8 | C=CC(=O)Nc1cc(Nc2cc(N3OCC[C@@H]3c3cccc(OC)c3)ncn2)c(OC)cc1N(C)CCN(C)C [Example 24, N-(2-((2-(dimethylamino)ethyl) (methyl)amino)-4-methoxy-5-((6-((R)-3-(3-methoxyphenyl)isoxazolidine-2-yl)pyrimidine-4-yl)amino)phenyl) acrylamide] | A (GI50 < 50 nM)
9 | C=CC(=O)Nc1cc(Nc2cc(N3OCC[C@@H]3c3ccccc3)ncn2)c(OC)cc1N1CCC(N2CCN(CC3CC3)CC2)CC1 [Example 91, N-(2-(4-(4-(cyclopropylmethyl)piperazine-1-yl)piperidine-1-yl)-4-methoxy-5-((6-((R)-3-phenylisoxazolidine-2-yl)pyrimidine-4-yl)amino)phenyl)acrylamide] | A (GI50 < 50 nM)
10 | C=CC(=O)Nc1cc(Nc2cc(N3OCC[C@@H]3c3ccccc3)ncn2)c(OC)cc1N1CCC(N2C[C@@H]3C[C@H]2CO3)CC1 [Example 54, N-(2-(4-((1S,4S)-2-oxa-5-oxabicyclo[2.2.1]heptane-5-yl)piperidine-1-yl)-4-methoxy-5-((6-((R)-3-phenylisoxazolidne-2-yl)pyrimidine-4-yl)amino)phenyl) acrylamide] | A (GI50 < 50 nM)
11 | C=CC(=O)Nc1cc(Nc2cc(N3OCC[C@@H]3c3ccc(Cl)cc3)ncn2)c(OC)cc1N1CCC(N2C[C@@H]3C[C@H]2CO3)CC1 [compound 866, N-(2-(4-((1S,4S)-2-oxa-5-azabicyclo [2.2.1]heptane-5-yl)piperidine-1-yl)-5-((6-((R)-3-(4-chlorophenyl)isoxazolidine-2-yl)pyrimidine-4-yl)amino)-4-methoxyphenyl) acrylamide] | A (GI50 < 50 nM)

Now from value to molecule:

Row | Ba/F3 (NPH) Activity | Compound
12 | C (500 nM ≤ GI50 < 5000 nM) | C=CC(=O)Nc1cc(Nc2cc(N3OCC[C@H]3c3c(F)cccc3F)ncn2)c(OC)cc1N1CCC(N2CCN(C3CC3)CC2)CC1 [Example 129, N-(2-(4-(4-cyclopropylpiperazine-1-yl)piperidine-1-yl)-5-((6-((S)-3-(2,6-difluorophenyl)isoxazolidine-2-yl)pyrimidine-4-yl)amino)-4-methoxyphenyl) acrylamide]
13 | C (500 nM ≤ GI50 < 5000 nM) | C=CC(=O)Nc1cc(Nc2cc(N3OCC[C@H]3c3c(F)cccc3F)ncn2)c(OC)cc1N1CCC(N2C[C@@H](C)O[C@@H](C)C2)CC1 [compound 309, N-(5-((6-((S)-3-(2,6-difluorophenyl)isoxazolidine-2-yl)pyrimidine-4-yl)amino)-2-(4-((2S,6R)-2,6-dimethylmorpholino)piperidine-1-yl)-4-methoxyphenyl) acrylamide]
14 | B (50 nM ≤ GI50 < 500 nM) | C=CC(=O)Nc1cc(Nc2cc(N3OCC[C@@H]3c3cc(F)ccc3F)ncn2)c(OC)cc1N(C)CCOC [compound 327, N-(5-((6-((R)-3-(2,5-difluorophenyl)isoxazolidine-2-yl)pyrimidine-4-yl)amino)-4-methoxy-2-((2-methoxyethyl) (methyl)amino)phenyl)acrylamide]
15 | A (GI50 < 50 nM) | C=CC(=O)Nc1cc(Nc2cc(N3OCC[C@@H]3c3cc(F)cc(F)c3)ncn2)c(OC)cc1N1CCC(N2CCN(C3CC3)[C@@H](C)C2)CC1 [Example 110, N-(2-(4-((S)-4-cyclopropyl-3-methylpiperazine-1-yl)piperidine-1-yl)-5-((6-((R)-3-(3,5-difluorophenyl)isoxazolidine-2-yl)pyrimidine-4-yl)amino)-4-methoxyphenyl) acrylamide]
16 | C (500 nM ≤ GI50 < 5000 nM) | C=CC(=O)Nc1cc(Nc2cc(N3OCC[C@H]3c3c(F)cccc3F)ncn2)c(OC)cc1N1CCC(N2CCN(CC)CC2)CC1 [compound 312, N-(5-((6-((S)-3-(2,6-difluorophenyl)isoxazolidine-2-yl)pyrimidine-4-yl)amino)-2-(4-(4-ethylpiperazine-1-yl)piperidine-1-yl)-4-methoxyphenyl) acrylamide]
17 | A (GI50 < 50 nM) | C=CC(=O)Nc1cc(Nc2cc(N3OCC[C@@H]3c3cccc(Cl)c3F)ncn2)c(OC)cc1N1CCC(N2CCN(C)CC2)CC1 [compound 747, N-(5-((6-((R)-3-(3-chloro-2-fluorophenyl)isoxazolidine-2-yl)pyrimidine-4-yl)amino)-4-methoxy-2-(4-(4-methylpiperazine-1-yl)piperidine-1-yl)phenyl) acrylamide]
18 | A (GI50 < 50 nM) | C=CC(=O)Nc1cc(Nc2cc(N3OCC[C@@H]3c3cc(F)cc(Cl)c3)ncn2)c(OC)cc1N1CCN(C)CC1 [compound 537, N-(5-((6-((R)-3-(3-chloro-5-fluorophenyl)isoxazolidine-2-yl)pyrimidine-4-yl)amino)-4-methoxy-2-(4-methylpiperazine-1-yl)phenyl)acrylamide]
19 | A (GI50 < 50 nM) | C=CC(=O)Nc1cc(Nc2cc(N3OCC[C@@H]3c3cc(F)ccc3F)ncn2)c(OC)cc1N1CCN(C(C)=O)CC1 [compound 298, N-(2-(4-acetylpiperazine-1-yl)-5-((6-((R)-3-(2,5-difluorophenyl)isoxazolidine-2-yl)pyrimidine-4-yl)amino)-4-methoxyphenyl) acrylamide]
20 | A (GI50 < 50 nM) | C=CC(=O)Nc1cc(Nc2cc(N3OCC[C@@H]3c3cccc(Cl)c3)ncn2)c(OC)cc1N1CC[C@@H](N(C)C)C1 [compound 469, N-(5-((6-((R)-3-(3-chlorophenyl)isoxazolidine-2-yl)pyrimidine-4-yl)amino)-2-((R)-3-(dimethylamino)pyrolidine-1-yl)-4-methoxyphenyl) acrylamide]
21 | A (GI50 < 50 nM) | C=CC(=O)Nc1cc(Nc2cc(N3OCC[C@@H]3c3cccc(OC)c3)ncn2)c(OC)cc1N1CCC(N2CCOCC2)CC1 [compound 775, N-(4-methoxy-5-((6-((R)-3-(3-methoxyphenyl)isoxazolidine-2-yl)pyrimidine-4-yl)amino)-2-(4-morpholinopiperidine-1-yl)phenyl)acrylamide]
22 | A (GI50 < 50 nM) | C=CC(=O)Nc1cc(Nc2cc(N3OCC[C@@H]3c3cccc(C#N)c3)ncn2)c(OC)cc1N1C[C@@H]2CCN(C)[C@@H]2C1 [compound 332, N-(5-((6-((R)-3-(3-cyanophenyl)isoxazolidine-2-yl)pyrimidine-4-yl)amino)-4-methoxy-2-((3aS,6aS)-1-methylhexahydropyrrolo [3,4-b]pyrrole-5(1H)-yl)phenyl)acrylamide]
23 | A (GI50 < 50 nM) | C=CC(=O)Nc1cc(Nc2cc(N3OCC[C@@H]3c3ccc(F)c(Cl)c3)ncn2)c(OC)cc1N1CCC(N2CCN(C(C)C)CC2)CC1 [compound 715, N-(5-((6-((R)-3-(3-chloro-4-fluorophenyl)isoxazolidine-2-yl)pyrimidine-4-yl)amino)-2-(4-(4-isopropylpiperazine-1-yl)piperidine-1-yl)-4-methoxyphenyl) acrylamide]
